In PubChem BioAssay (NCI):
“And” between values parts separate entries of the source, which are not always exact repeats. Equal entries are not always repeated.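 Compound exposure: 48 hours, 5 concentrations, 96-well plates. At the GI50, growth is halved. At the TGI there is no net growth.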

Experiments:
Assay in all cases: NCI-60 cell line screen, 48 h
A498 renal = test system: A498 renal
ACHN renal = test system: ACHN renal
HCC-2998 colon = test system: HCC-2998 colon
HT29 colon = test system: HT29 colon
PC-3 prostate = test system: PC-3 prostate
RXF 393 renal = test system: RXF 393 renal
SF-539 CNS = test system: SF-539 CNS
SK-OV-3 ovarian = test system: SK-OV-3 ovarian
TK-10 renal = test system: TK-10 renal
UACC-62 melanoma = test system: UACC-62 melanoma

SMILES | GI50 (A498 renal) | TGI (A498 renal) | GI50 (ACHN renal) | TGI (ACHN renal) | GI50 (HCC-2998 colon) | TGI (HCC-2998 colon) | GI50 (HT29 colon) | TGI (HT29 colon) | GI50 (PC-3 prostate) | TGI (PC-3 prostate) | GI50 (RXF 393 renal) | TGI (RXF 393 renal) | GI50 (SF-539 CNS) | TGI (SF-539 CNS) | GI50 (SK-OV-3 ovarian) | TGI (SK-OV-3 ovarian) | GI50 (TK-10 renal) | TGI (TK-10 renal) | GI50 (UACC-62 melanoma) | TGI (UACC-62 melanoma)
COC(=O)[C@]12CC[C@@H](C)[C@H](C)[C@@H]1C1=CC[C@@H]3[C@@]4(C)C[C@@H](OC(=O)/C=C/c5ccccc5)[C@H](O)[C@@](C)(CO)[C@@H]4[C@H](O)C[C@@]3(C)[C@]1(C)CC2 | 1.07 µM | 4.83 µM | 3.11 µM | 11.4 µM | 2.13 µM | 4.88 µM | 1.8 µM | 3.81 µM | 2.55 µM | 8.93 µM | 1.74 µM | 3.84 µM | 2.08 µM | 4.77 µM | 3.91 µM | 14.3 µM | 2.26 µM | 6.33 µM | 2.83 µM | 11.4 µM
C#Cc1cccc(Nc2ncnc3ccc(OCCCCNCCS(C)(=O)=O)cc23)c1 | 3.18 µM | 9.75 µM | 0.945 µM | > 25 µM | 7.83 µM | > 25 µM | 5.44 µM | 12.5 µM | 9.55 µM | > 25 µM | 5.32 µM | > 22.6 µM | 4.49 µM | 8.72 µM | 1.28 µM | > 25 µM | 0.238 µM | 6.27 µM | 4.82 µM | 9.1 µM
C=CC(=O)N1C[C@@H]2CCOc3c(Cl)c(-c4c(O)cccc4F)c(F)c4ncnc(c34)N2C[C@H]1C | 13.6 µM | 28.1 µM | 10.5 µM | 22.2 µM | 15.2 µM | 28.8 µM | 18.6 µM | 52.5 µM | 17.9 µM | > 100 µM | 2.15 µM | 15.1 µM | 12.9 µM | 25.8 µM | 17.3 µM | 42.7 µM | 16.1 µM | 33.3 µM | 4.17 µM | 18.8 µM
Cc1ccc(C=C2C(Cl)=C(Cl)C(Cl)=C2Cl)cc1 | 1.43 µM | 2.91 µM | 0.7 µM | 1.94 µM | 1.47 µM | 2.93 µM | 0.796 µM | 2.89 µM | 0.743 µM | 6.3 µM | 0.308 µM | 0.906 µM | 1.45 µM | 2.81 µM | 2.03 µM | 4.62 µM | 0.972 µM | 2.55 µM | 0.784 µM | 2.74 µM
O=C(C=P(c1ccccc1)(c1ccccc1)c1ccccc1)CCl | 1.09 µM | 2.46 µM | 0.569 µM | 1.94 µM | 1.84 µM | 3.7 µM | 1.13 µM | 2.8 µM | 1.54 µM | 3.34 µM | 1.01 µM | 2.41 µM | 1.28 µM | 2.98 µM | 4.67 µM | 16.1 µM | 1.69 µM | 3.12 µM | 1.14 µM | 2.88 µM
Cn1cc(C2=C(c3cn(-c4ccccc4)c4ccccc34)C(=O)NC2=O)c2ccccc21 | > 16.2 µM | > 25 µM | 17.3 µM | > 25 µM | 24.4 µM | > 25 µM | 9.56 µM | > 25 µM | 9.86 µM | > 25 µM | 10.2 µM | > 25 µM | > 25 µM | > 25 µM | > 25 µM | > 25 µM | > 25 µM | > 25 µM | 16.3 µM | > 25 µM
Cn1c(=O)nc2n(-c3ccc(Cl)cc3)c3cc(Cl)ccc3nc-2c1=O | – | 27.6 µM | – | 25.5 µM | – | 14.1 µM | – | 9.57 µM | – | 24.1 µM | – | 9.25 µM | – | 30.4 µM | – | 34.6 µM | – | 37 µM | – | 3.57 µM
NC(=S)N/N=C1\c2ccccc2-c2c(F)c(F)c(F)c(F)c21 | 16.5 µM | 55.7 µM | 2.11 µM | 4.38 µM | 3.11 µM | 9.37 µM | 2.2 µM | 5.07 µM | 10.1 µM | 28.3 µM | 2.07 µM | 3.85 µM | 5.39 µM | 12.8 µM | 14.1 µM | 36.5 µM | 5.7 µM | 15.9 µM | 8.97 µM | 24.6 µM
COc1cc(/C=C2\CCC/C(=C\c3ccc(O)c(OC)c3)C2=O)ccc1O | 1.81 µM | 13.5 µM and 5.34 µM | 1.82 µM | 4.34 µM and 3.33 µM | 1.67 µM | 8.09 µM and 3.04 µM | 2.31 µM | 18.8 µM and 5.68 µM | 3.14 µM | 23.7 µM and 13.6 µM | 1.43 µM | 6.17 µM and 2.94 µM | – | 4.42 µM and 5.73 µM | 2.36 µM | 15.5 µM and 6.31 µM | 2.8 µM | 37.2 µM and 11.6 µM | 1.6 µM | 5.32 µM and 4.06 µM
Clc1cc(Cl)c(OCCCCCCN2CCNCC2)c(Cl)c1 | 9.35 µM | 22.6 µM | 2.44 µM | 6.11 µM | 2 µM | 4.1 µM | 1.96 µM | 4.3 µM | 1.8 µM | 4.03 µM | 1.7 µM | 5.07 µM | 2.27 µM | 5.71 µM | 12.9 µM | 28.6 µM | 11.8 µM | 24.5 µM | 2.09 µM | 4.27 µM
CCc1cnn2c(NCc3ccc[n+]([O-])c3)cc(N3CCCC[C@H]3CCO)nc12 | 0.0029 µM | 0.00904 µM | < 0.0155 µM and 0.0132 µM | > 10 µM | < 0.01 µM and 0.0045 µM | 0.0492 µM and 0.0347 µM | < 0.01 µM and 0.00441 µM | – | < 0.0132 µM and 0.00762 µM | 0.0792 µM and 0.111 µM | < 0.01 µM and 0.00188 µM | < 0.01 µM and 0.00446 µM | < 0.01 µM and 0.00228 µM | < 0.0116 µM and 0.00756 µM | 0.0391 µM and 0.0338 µM | > 100 µM | < 0.0156 µM and 0.00916 µM | 1.95 µM and > 2.07 µM | < 0.01 µM and 0.00345 µM | 0.0307 µM and 0.0168 µM
C#CC(=O)Nc1cccc2c1cc(C)n2-c1nc2c(c(NCc3ccccc3)n1)CCCC2 | 1.75 µM | 3.74 µM | 0.273 µM | 0.786 µM | 0.335 µM | 1 µM | 0.0543 µM | 0.121 µM | 0.186 µM | 0.351 µM | 0.152 µM | 0.311 µM | 0.172 µM | 0.337 µM | 0.519 µM | 1.09 µM | 1.66 µM | 3.09 µM | 0.165 µM | 0.351 µM
C/C(=N\OCC(O)CNCCSCc1ccccc1)c1ccccc1Cl (stereo not drawn) | – | 31.9 µM | – | 37.8 µM | – | 40.9 µM | – | 41.4 µM | – | 36.2 µM | – | 37 µM | – | 36.9 µM | – | 35.4 µM | – | 35.3 µM | – | 34.4 µM
